One block for each molecule: values may come before it.
What was measured:
[1] = biological target: T1, Ephrin type-B receptor 4 (Homo sapiens) (UniProt P54760); conditions: at 10 µM
T1 sequence (whole entry): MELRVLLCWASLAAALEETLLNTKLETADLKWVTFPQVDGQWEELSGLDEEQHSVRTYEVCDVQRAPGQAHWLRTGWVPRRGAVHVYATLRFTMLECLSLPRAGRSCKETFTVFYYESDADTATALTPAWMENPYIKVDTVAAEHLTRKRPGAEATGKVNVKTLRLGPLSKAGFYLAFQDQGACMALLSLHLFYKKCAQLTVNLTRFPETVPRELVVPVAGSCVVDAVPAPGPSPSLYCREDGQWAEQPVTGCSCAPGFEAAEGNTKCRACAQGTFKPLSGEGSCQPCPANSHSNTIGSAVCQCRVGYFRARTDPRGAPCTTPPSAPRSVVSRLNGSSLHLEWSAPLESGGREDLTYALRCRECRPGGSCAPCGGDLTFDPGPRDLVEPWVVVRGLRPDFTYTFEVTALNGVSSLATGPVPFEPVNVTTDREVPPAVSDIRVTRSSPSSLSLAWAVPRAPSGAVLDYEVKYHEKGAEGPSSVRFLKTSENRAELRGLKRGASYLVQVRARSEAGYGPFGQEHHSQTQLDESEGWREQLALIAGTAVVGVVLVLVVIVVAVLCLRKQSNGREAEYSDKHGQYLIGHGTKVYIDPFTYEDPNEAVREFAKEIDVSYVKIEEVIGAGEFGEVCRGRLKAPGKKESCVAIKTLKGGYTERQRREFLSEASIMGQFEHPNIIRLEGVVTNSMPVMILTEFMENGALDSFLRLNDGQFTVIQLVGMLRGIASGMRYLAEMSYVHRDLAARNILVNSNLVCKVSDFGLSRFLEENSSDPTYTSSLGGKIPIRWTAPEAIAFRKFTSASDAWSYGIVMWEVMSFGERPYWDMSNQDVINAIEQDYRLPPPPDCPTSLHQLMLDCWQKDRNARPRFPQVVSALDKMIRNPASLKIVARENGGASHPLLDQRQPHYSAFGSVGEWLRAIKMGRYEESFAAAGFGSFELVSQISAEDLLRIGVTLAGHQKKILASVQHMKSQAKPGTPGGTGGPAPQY

[2] = biological target: T2, Serine/threonine-protein kinase LATS1 (Homo sapiens) (UniProt O95835); test: Selectivity interaction (ActivX KiNativ screen (kinase selectivity in THP-1 cell lysates)) EUB0000639a LATS1; format: subcellular; conditions: lysate, at 1 µM
T2 sequence (whole entry): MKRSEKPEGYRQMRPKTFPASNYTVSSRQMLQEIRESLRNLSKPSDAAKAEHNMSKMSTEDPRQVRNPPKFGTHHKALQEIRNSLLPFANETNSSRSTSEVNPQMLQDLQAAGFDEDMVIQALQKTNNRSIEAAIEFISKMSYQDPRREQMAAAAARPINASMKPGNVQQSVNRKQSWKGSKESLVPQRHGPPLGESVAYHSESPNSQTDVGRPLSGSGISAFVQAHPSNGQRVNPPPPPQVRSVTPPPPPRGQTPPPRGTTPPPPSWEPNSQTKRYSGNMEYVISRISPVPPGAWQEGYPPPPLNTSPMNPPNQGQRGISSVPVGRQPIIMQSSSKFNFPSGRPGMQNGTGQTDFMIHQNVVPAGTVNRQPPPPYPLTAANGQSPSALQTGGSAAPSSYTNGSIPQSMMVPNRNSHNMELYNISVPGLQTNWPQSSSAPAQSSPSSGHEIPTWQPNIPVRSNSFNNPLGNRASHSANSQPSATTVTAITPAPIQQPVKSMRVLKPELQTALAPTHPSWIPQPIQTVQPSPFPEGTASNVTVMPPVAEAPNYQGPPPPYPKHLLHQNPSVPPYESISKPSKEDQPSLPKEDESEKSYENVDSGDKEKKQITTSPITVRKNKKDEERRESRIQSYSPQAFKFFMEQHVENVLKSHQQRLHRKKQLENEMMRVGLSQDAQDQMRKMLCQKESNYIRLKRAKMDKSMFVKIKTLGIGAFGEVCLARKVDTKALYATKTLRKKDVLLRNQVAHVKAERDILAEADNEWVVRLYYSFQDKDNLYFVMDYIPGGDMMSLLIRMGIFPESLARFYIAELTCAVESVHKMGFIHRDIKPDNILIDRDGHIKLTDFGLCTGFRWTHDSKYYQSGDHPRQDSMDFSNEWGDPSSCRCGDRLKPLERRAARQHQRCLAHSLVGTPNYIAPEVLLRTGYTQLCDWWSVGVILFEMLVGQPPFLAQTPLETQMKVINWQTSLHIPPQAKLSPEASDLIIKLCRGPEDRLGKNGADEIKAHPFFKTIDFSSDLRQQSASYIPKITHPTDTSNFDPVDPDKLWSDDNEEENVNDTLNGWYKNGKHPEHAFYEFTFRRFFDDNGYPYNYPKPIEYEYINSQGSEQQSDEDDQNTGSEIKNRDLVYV

Histamine H3 receptor = Histamine H3 receptor (Homo sapiens, UniProt Q9Y5N1); test: Selectivity interaction (Human histamine H3 receptor binding assay ) EUB0000877a HRH3
Chain of Histamine H3 receptor (Q9Y5N1 whole entry): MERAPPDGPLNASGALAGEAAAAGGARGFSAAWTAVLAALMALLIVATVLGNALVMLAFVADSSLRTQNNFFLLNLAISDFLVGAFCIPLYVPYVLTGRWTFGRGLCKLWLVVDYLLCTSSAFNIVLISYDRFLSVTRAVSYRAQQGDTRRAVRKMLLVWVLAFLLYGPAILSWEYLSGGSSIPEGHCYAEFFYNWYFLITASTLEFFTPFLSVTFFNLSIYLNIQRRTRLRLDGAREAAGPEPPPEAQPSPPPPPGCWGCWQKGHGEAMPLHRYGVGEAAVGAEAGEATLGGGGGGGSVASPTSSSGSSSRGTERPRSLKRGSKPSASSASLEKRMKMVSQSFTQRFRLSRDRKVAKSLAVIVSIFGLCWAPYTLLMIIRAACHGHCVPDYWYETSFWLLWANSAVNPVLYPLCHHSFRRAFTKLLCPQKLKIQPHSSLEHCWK

[3] = biological target: Platelet-derived growth factor receptor alpha (Homo sapiens, UniProt P16234); test: Selectivity interaction (Kinase panel (Enzyme activity assay)) EUB0000612a PDGFRA
Chain of Platelet-derived growth factor receptor alpha (P16234 whole entry): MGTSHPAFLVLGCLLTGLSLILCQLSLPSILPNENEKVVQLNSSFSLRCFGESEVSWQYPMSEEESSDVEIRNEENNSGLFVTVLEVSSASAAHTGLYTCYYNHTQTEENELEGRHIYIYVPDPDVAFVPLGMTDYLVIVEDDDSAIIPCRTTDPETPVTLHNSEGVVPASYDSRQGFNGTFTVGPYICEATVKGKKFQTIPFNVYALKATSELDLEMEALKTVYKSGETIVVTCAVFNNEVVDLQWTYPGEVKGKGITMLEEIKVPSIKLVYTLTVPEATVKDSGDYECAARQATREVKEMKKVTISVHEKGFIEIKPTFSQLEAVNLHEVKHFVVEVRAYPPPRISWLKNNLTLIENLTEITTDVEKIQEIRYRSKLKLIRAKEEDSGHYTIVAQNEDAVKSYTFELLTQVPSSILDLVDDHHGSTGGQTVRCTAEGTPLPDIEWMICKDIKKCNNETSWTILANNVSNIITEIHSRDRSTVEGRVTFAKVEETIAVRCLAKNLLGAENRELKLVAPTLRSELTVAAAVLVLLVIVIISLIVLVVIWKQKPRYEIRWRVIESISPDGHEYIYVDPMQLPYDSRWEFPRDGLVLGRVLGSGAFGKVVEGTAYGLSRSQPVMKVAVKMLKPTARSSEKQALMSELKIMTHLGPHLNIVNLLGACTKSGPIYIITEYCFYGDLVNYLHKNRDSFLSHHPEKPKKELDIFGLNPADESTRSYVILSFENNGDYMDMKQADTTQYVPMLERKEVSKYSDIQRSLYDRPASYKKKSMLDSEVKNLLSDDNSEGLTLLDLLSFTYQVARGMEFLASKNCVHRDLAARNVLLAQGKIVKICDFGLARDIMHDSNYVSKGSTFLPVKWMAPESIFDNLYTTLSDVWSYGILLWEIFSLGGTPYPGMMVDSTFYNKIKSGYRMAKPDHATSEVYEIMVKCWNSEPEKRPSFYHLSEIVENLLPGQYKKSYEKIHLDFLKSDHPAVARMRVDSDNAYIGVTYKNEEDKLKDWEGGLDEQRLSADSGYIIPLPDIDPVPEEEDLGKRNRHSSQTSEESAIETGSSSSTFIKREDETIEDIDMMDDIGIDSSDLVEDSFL

[4] = biological target: Fibroblast growth factor receptor 3 (Homo sapiens, UniProt P22607); test: Selectivity interaction (KinomeScan (DiscoverX)) EUB0000699a FGFR3; conditions: at 10 µM
Chain of Fibroblast growth factor receptor 3 (P22607 23-806 limits assumed): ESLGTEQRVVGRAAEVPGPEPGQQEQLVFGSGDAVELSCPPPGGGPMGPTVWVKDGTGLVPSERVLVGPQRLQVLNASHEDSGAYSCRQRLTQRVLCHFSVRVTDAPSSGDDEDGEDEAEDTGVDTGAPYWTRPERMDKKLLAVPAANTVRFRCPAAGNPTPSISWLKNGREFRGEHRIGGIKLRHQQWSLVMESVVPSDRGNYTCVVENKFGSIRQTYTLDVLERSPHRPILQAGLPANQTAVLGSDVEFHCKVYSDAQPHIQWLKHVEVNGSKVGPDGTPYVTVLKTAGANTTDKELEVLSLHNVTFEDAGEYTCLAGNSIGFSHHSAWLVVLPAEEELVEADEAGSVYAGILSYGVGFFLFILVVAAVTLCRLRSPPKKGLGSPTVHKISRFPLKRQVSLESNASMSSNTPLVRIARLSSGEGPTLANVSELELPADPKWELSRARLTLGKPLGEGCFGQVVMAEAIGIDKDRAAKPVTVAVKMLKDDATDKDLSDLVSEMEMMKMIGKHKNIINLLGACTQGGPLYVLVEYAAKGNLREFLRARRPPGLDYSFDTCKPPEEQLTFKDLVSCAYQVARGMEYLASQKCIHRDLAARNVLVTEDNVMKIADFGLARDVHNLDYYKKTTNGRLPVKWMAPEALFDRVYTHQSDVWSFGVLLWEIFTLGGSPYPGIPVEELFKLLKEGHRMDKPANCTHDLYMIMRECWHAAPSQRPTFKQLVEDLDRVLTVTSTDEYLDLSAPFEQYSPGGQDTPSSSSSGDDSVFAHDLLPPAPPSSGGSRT

[5] = biological target: Interferon-induced, double-stranded RNA-activated protein kinase (Homo sapiens) (UniProt P19525); test: Selectivity interaction (KinomeScan (DiscoverX)) EUB0000229b EIF2AK2; conditions: at 10 µM
Chain of Interferon-induced, double-stranded RNA-activated protein kinase (Homo sapiens) (P19525 whole entry): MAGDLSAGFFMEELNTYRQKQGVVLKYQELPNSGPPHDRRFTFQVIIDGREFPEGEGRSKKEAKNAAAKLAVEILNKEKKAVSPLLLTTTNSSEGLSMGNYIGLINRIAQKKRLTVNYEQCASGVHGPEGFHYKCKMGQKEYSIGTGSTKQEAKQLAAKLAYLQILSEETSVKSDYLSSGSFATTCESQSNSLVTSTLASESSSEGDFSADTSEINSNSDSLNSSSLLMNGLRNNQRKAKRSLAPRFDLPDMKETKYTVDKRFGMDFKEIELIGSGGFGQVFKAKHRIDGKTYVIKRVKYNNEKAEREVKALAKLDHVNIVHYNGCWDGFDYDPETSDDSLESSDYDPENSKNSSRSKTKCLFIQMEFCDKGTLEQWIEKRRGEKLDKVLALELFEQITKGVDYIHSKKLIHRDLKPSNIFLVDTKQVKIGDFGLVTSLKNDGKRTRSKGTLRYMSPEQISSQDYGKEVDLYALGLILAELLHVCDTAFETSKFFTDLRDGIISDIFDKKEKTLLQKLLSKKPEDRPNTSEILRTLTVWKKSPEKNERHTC

[6] = biological target: T3, Megakaryocyte-associated tyrosine-protein kinase (Homo sapiens) (UniProt P42679); test: Selectivity interaction (KinomeScan (DiscoverX)) EUB0000229b MATK; conditions: at 10 µM
T3 sequence (whole entry): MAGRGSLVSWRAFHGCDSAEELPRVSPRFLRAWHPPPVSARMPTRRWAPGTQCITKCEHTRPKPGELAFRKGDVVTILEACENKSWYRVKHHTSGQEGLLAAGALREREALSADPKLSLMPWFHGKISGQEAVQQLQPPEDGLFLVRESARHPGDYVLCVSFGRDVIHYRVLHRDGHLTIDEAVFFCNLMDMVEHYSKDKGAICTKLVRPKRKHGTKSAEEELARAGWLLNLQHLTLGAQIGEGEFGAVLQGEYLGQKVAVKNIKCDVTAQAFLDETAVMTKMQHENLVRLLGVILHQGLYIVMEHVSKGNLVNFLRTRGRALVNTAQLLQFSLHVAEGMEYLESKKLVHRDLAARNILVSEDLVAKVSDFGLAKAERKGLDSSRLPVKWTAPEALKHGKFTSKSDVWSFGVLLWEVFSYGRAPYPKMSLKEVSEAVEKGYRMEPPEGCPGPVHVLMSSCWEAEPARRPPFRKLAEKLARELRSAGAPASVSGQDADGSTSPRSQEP

[7] = biological target: Phosphatidylinositol 4-phosphate 3-kinase C2 domain-containing subunit beta (Homo sapiens) (UniProt O00750); test: Selectivity interaction (KinomeScan (DiscoverX)) EUB0001619a PIK3C2B; conditions: at 1 µM
Chain of Phosphatidylinositol 4-phosphate 3-kinase C2 domain-containing subunit beta (Homo sapiens) (O00750 whole entry, the tested form may be a part): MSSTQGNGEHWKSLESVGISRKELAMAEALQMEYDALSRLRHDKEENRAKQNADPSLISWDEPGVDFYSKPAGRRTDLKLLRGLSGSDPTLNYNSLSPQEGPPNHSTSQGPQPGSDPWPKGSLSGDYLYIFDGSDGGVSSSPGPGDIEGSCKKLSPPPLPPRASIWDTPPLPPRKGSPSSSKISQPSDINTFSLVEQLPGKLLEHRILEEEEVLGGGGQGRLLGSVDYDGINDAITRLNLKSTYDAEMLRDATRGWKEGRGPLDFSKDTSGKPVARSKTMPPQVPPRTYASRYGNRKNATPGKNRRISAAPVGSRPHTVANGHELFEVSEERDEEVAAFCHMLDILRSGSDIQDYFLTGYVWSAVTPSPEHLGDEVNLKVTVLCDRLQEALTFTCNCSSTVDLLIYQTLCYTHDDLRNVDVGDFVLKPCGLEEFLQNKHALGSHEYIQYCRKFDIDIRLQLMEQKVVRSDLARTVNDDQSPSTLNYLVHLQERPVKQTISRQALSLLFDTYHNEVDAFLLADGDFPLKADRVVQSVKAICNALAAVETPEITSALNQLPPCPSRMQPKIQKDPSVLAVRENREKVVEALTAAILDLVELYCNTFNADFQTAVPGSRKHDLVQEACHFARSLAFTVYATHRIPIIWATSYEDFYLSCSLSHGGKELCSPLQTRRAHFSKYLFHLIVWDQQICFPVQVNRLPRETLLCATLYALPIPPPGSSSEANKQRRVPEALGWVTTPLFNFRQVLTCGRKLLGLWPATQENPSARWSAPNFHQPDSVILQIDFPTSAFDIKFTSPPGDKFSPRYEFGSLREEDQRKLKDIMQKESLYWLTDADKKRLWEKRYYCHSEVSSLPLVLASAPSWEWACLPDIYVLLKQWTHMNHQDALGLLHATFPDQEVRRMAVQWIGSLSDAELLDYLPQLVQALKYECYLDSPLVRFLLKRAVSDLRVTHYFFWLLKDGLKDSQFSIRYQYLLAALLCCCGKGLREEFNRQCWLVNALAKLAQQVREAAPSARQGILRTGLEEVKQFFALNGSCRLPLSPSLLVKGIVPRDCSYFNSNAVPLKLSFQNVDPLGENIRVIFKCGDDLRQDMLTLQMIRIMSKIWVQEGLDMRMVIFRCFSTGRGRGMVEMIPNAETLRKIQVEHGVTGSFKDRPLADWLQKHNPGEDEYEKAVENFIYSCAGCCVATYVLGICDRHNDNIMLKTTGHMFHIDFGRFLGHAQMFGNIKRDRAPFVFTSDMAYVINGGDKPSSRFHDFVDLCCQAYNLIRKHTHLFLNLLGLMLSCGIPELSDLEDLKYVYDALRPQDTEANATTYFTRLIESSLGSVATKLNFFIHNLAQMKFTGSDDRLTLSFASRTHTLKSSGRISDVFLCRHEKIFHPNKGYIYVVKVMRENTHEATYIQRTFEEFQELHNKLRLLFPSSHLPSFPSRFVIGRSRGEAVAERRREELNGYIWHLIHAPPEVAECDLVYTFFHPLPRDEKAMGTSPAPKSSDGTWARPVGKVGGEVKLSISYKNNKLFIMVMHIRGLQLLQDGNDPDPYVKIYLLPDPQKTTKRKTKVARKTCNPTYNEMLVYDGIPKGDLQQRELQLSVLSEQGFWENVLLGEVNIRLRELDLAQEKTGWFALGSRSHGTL

Structure (SMILES): Cc1cc([C@@H](C)Nc2ccccc2C(=O)O)c2nc(N3CCOCC3)cc(=O)n2c1 [AZD-6482]
% of control [1]: 96%

Structure (SMILES): CC[C@@H]1[C@H](F)C(=O)N[C@@H]1COc1nccc2cc(C(N)=O)c(OC)cc12 [ZIMLOVISERTIB]
% of inhibition [2]: -107%

Structure (SMILES): CCN(CC)CCCCNc1ncc2cc(-c3cc(OC)cc(OC)c3)c(NC(=O)NC(C)(C)C)nc2n1
% of control [4]: 0.1%

Structure (SMILES): COc1cc(N(C)c2ccnc3ccc(C(F)(F)F)cc23)cc(OC)c1OC
% binding [5]: 58%
% binding [6]: 81%

Structure (SMILES): N#Cc1cccc(-c2c[nH]c3ncnc(N4CCOCC4)c23)c1
% of control [7]: 100%

Second part, the molecule after the results:

IC50 (Histamine H3 receptor): > 30 µM
Structure (SMILES): CCC(=O)N1CC[C@H](Nc2ncnc3c2CN(c2cnc(OC)c(C(F)(F)F)c2)CC3)C1 [LENIOLISIB]

IC50 [3]: > 10 µM
Structure (SMILES): CCc1cccc(CC)c1NC(=O)c1nn(C)c2c1CCc1cnc(Nc3ccc(C(=O)NC4CCN(C)CC4)cc3OC(F)(F)F)nc1-2

— ChEMBL document CHEMBL5465560, “Selectivity Literature for EUbOPEN Chemogenomic Library” (2024)
